# In patent EP4806904A1, “POLYPEPTIDE AND USE THEREOF” (Sichuan Gooddoctor Panxi Pharmaceutical Co. Ltd, priority 2023, dated 2026):
# Experiments:
# [1] = system: Brain microvascular endothelial cells (BMECs) and brain microvascular smooth muscle cells (BMVSMCs); assay: In vitro angiogenesis assay, BMEC/BMVSMC co-culture on matrigel; format: cell-based, mouse; settings: 0.1 mg/L, 48 h
# Procedure, shortened: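 Mouse BMVSMCs (5×10^3) and BMECs (1×10^3) per well, passages 3-6, co-cultured on matrigel at 37 °C, 5% CO2. After medium change on day 4, polypeptide 0.1 mg/L or VEGFA 10/15/20 ng/L for 48 h; Hoechst/Calcein AM stained, imaged by high-content screening and angiogenesis quantified.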
# [2] = system: tMCAO rats; assay: Cortical index 14 days after ischemia-reperfusion injury; format: in vivo, SD rats; settings: 10 mg/kg, tail vein, treatment for 14 days, P<0.01
# Protocol: (§1) Experimental animals, model establishment, grouping and drug administration are the same as in Example 5.
# (§2) The cortical index was calculated for each group of rats 14 days after ischemia-reperfusion injury. tMCAO rats were treated with the polypeptide compound 1 of the invention for 14 days, and the expression of PSD95 and SYP was detected by Western blot.
# [3] = system: primary neural stem cells (NSCs); assay: Differentiation of primary neural stem cells, βIII-tubulin fluorescence and Neurite Outgrowth Assay; format: cell-based, SD rats; settings: 100 µg/mL
# Procedure, shortened: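 Hippocampal NSCs from newborn SD rats, passage 3, seeded at 5×10^4 cells/mL in 2% FBS DMEM/F12 differentiation medium. Polypeptide at final 100 µg/mL (NGF 50 ng/mL positive control) for 4 days. βIII-tubulin immunofluorescence intensity and neurite outgrowth quantified by high-content imaging.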
# [4] = system: PSD95 and SYP; assay: Western blot of PSD95 and SYP in hippocampus and cortex; format: in vivo, SD rats; settings: treatment for 14 days, vs Vehicle group, P<0.05
# Protocol: as §1, §2
# [5] = system: primary neural stem cells (NSCs); assay: Proliferation of primary neural stem cells, BrdU incorporation (Example 2.1); format: cell-based, SD rats; settings: 0.02, 0.1, 0.5 mg/mL, 48 h, vs control group
# Protocol: (§3) This part of the experiment requires feeding male and female rats in advance, then extracting hippocampal neural stem cells from newborn SD rats within 24 h of birth, culturing them to P3 for identification, and then using them for experiments.
# (§4) Extraction and culture of primary neural stem cells (NSCs): Hippocampal neural stem cells were extracted from neonatal SD mice 24 h after birth. The procedure is as follows: first, the neonatal rats were disinfected by soaking in 75% ethanol, then transferred to a biological safety cabinet for manipulation under aseptic conditions. After the entire brain was removed from the neonatal mouse, it was immediately placed in cold D-Hanks solution to remove non-neural tissue. Under a dissecting microscope, the meninges were carefully removed and the hippocampal structures on both sides were separated. […]
# Medium-sized neurospheres formed from P3-P4 generations were centrifuged at 800 rpm for 5 min, the supernatant was discarded, a small amount of complete medium was added and pipetted to form a single-cell suspension, the cells were resuspended, counted, and seeded at 1.0 x 10^5 cells/mL into 24-well plates coated with 25 µg/mL PLL. […] Immunofluorescence staining was performed 4 h later, and the cells were then observed and photographed under a fluorescence microscope. The BrdU-positive cell rate was statistically analyzed.
# [6] = system: primary neural stem cells (NSCs); assay: Differentiation of primary neural stem cells, MAP-2/GFAP immunofluorescence (Example 2.2); format: cell-based, SD rats; settings: 0.02, 0.1, 0.5 mg/mL, 4 days, vs control group
# Protocol: as §3
# as §4, with “separated. The tissue was mechanically broken into flocculent pieces with a scalpel, pipetted, and the tissue sample was transferred to a 15 mL centrifuge tube and centrifuged at 800 rpm for 5 min.” for “separated.”
# Medium-sized neurospheres cultured at P3-P4 were collected, centrifuged at 800 rpm for 5 min, and the supernatant was discarded. […] Subsequently, the images were observed and collected under a fluorescence microscope, and the mean fluorescence intensities of MAP-2 and GFAP were statistically analyzed respectively.
# [7] = significance vs blank control group
# [8] = 4 days, significance vs blank control group
substance,measurement,setting,value
"H-ALPAPGTL-OH [Compound 1, H-Ala-Leu-Pro-Ala-Pro-Gly-Thr-Leu-OH]",Branch length,[1]; [7],** (**p < 0.01)
same,Cell count,[1]; [7],*** (***p < 0.001)
same,Number of intersections,[1]; [7],* (*p < 0.05)
same,angiogenesis-promoting effects,"[1]; vs normal group, in words",exhibited angiogenesis-promoting effects
same,cortical index,[2],significantly increased
same,"neurite outgrowth (total neurite length, maximum neurite length, neurite terminals, neurite initiation points)","[3]; 4 days, Neurite Outgrowth Assay, in words",promote neurite outgrowth
same,Longest neurite length,[3]; [8],*** (***p < 0.001)
same,Neurite initiation points (branches),[3]; [8],*** (***p < 0.001)
same,Number of neurite terminals,[3]; [8],*** (***p < 0.001)
same,Total neurite length,[3]; [8],** (**p < 0.01)
same,mean fluorescence intensity of the neuronal marker protein βIII-tubulin,"[3]; 4 days, vs blank control group, in words",significant increase
same,differentiation of NSCs into neuronal cells,[3]; conclusion based on the results of the two analytical methods,promote the differentiation of NSCs into neuronal cells with stable effects
same,Average fluorescence intensity,"[3]; βIII-tubulin, 4 days, significance vs blank control group",** (**p < 0.01)
same,expression of PSD95,[4],significantly increased
same,expression of SYP,[4],significantly increased
same,percentage of BrdU-positive cells,[5],significantly increased
same,mean fluorescence intensity of GFAP,[6],significantly elevated
same,mean fluorescence intensity of MAP-2,[6],significantly elevated
